Experimental data published in US11174271B2, “6-membered uracil isosteres” (CV6 Therapeutics (NI) Limited, priority 2016, dated 2021).

Assays:
[1] = system: colorectal (HCT116 and SW620) cell line models; assay: MTS growth inhibition assay; format: cell-based; conditions: increasing concentrations of 5-FU between 0 and 100 μmol/L; both colorectal cancer cell lines
Protocol: The Cell Titer AQueous MTS assay (Promega) is carried out according to the manufacturers guidelines. […] The combination effect is determined by the combination index (CI) method utilizing Calcusyn software (Biosoft, Ferguson, Mo.). Fraction affected (FA) is calculated from the percent growth inhibition: FA=[…]. CI values <1, synergism; 1-1.2, additive and >1.2, antagonism.
Test compounds are evaluated for their antitumor activity in colorectal cancer cells using the MTS growth inhibition assay. HCT116 and SW620 cells are exposed to increasing concentrations of each agent for 72 hours and growth inhibition is directly compared to vehicle-treated controls. The NSCLC cell lines A549 and H1299 are exposed to increasing concentrations of each agent for 72 hours and growth inhibition is directly compared to vehicle-treated controls.
MTS growth inhibition assays are performed to evaluate the effectiveness of the test compounds alone and in combination with the fluoropyrimidine thymidylate synthase (TS) inhibitor 5-fluorouracil (5-FU) at inhibiting the growth of colorectal (HCT116 and SW620) cell line models. […] Simultaneous treatment with increasing concentrations of 5-FU and a test compound at fixed concentrations of 25 μmol/L is determined.

[2] = system: colorectal (HCT116), breast (MCF-7) and non-small cell lung (H1299, A549, H358 and H460) cell line models; assay: Colony forming assay; format: cell-based; conditions: increasing concentrations of FUdR between 0.5 and 2.5 μmol/L; all cell lines evaluated
Protocol: Colony forming assay showing the ability of colon (SW620, HCT116), non-small cell lung (A549, H460, H1299 and H358) and breast (MCF7) cancer cells to survive and proliferate following transient 24 hour exposure to test compounds, FUdR and combinations are determined. Specifically, cells are seeded at densities between 50 and 100 cells/well in 24-well plates. […] After 24 hours, drug is removed, cells are rinsed and allowed to outgrow for 10-14 days. At the conclusion of the outgrowth, cells are fixed in 60% ice cold methanol and stained with 0.1% crystal violet, scanned and counted. Data is presented as percentage of untreated controls (mean±SD). Fraction affected and combination indexes are calculated according to the method of Chou and Talalay where <1 is indicative of a synergistic drug interaction.
Colony forming assays are performed to evaluate the effectiveness of test compounds alone and in combination with the fluoropyrimidine thymidylate synthase (TS) inhibitor fluorodeoxyuridine (FUdR) at reducing cancer cell viability in colorectal (HCT116), breast (MCF-7) and non-small cell lung (H1299, A549, H358 and H460) cell line models. […] In colorectal cancer cells, concentrations of test compounds ranging e.g., from 3.1 μmol/L to 50 μmol/L are combined with 0.5 μmol/L FUdR in HCT116 cells and 1 μmol/L FUdR in SW620 cells.

[3] = biological target: T1, recombinant human deoxyuridine nucleotidohydrolase (dUTPase) (Homo sapiens, UniProt P33316); assay: fluorescence-based dUTPase inhibition assay (DNA polymerase-based dUTP detection); format: biochemical; conditions: mean across three concentrations, typically 100, 50 and 25 μmol/L, compared to the in-run positive control
T1 construct: made in house
T1 sequence (P33316 1-164 isoform P33316-2): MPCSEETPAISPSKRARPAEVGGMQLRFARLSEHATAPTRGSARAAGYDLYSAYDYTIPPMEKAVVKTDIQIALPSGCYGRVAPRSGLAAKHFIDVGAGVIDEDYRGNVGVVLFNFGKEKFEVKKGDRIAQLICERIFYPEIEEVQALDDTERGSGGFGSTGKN
From the text: Recombinant human deoxyuridine nucleotidohydrolase (dUTPase) is expressed and purified as described in Ladner R D, Carr S A, Huddleston M J, McNulty D E, Caradonna S J. J Biol Chem. 1996 Mar. 29; 271(13):7752-7. All drugs stocks are aliquoted and diluted as appropriate prior to use. The oligonucelotide primer, templates and fluorophore- and quencher-labeled detection probes are synthesized by Integrated DNA Technologies (Coralville, Iowa), subjected to polyacrylamide gel electrophoresis purification and reconstituted in Omnipur sterile nuclease-free water (EMD Chemicals USA, Gibbstown N.J.) at a stock concentration of 100 μmol/L. The two non-emissive (dark) quenching molecules incorporated into the detection probes include the Iowa black fluorescein quencher (IBFQ; absorption max 531 nm) and ZEN (non-abbreviation; absorption max 532 nm). The fluorescent label utilized is 6-FAM (5′-carboxyfluorescein; excitation max.=494 nm, emission max.=520 nm). Probes are further diluted to a working stock of 10 μmol/L and aliquoted to avoid repeated freeze/thaw cycles. AmpliTaq Gold DNA Polymerase, GeneAmp 10×PCR Buffer 2, MgCl2 and MicroAmp Optical 96-well Reaction Plates are purchased from Applied Biosystems (Carlsbad, Calif.). dNTPs are purchased individually at stock concentrations of 100 mmol/L from New England Biolabs at HPLC-certified >99% purity (Ipswich, Mass.).
Reaction mixtures contained primer, probe and template at an equimolar final concentration of 0.4 μmol/L. Magnesium chloride (MgCl2) is included at a final concentration of 2 mmol/L. Non-limiting dNTPs are included in the reaction mix in excess at a final concentration of 100 μmol/L (dUTP/dTTP is excluded). AmpliTaq Gold DNA polymerase is added at 0.875 U/reaction, 2.5 μl of 10×PCR buffer 2 added and nuclease-free ddH2O added to a final reaction volume of 25 μl. For dUTP inhibition analysis, the volume of ddH2O is further modified to accommodate an additional 1 μl of dUTPase (10 ng/μl) and 1 μl of inhibitor or DMSO control. Thermal profiling and fluorescence detection is performed using a customized thermal program on board a Roche Lightcycler LC480 Instrument II. For analysis of dNTPs, the thermal profile consisted of an 8 min 37° C. step followed by a 10 min 95° C. step to ‘hot-start’ the Taq polymerase and a primer extension time of up to 30 min at 60° C. Raw fluorescence spectra for 6-FAM is measured at specified time intervals to follow assay progression on board a Roche LightCycler 480 Software Version 1.5 and exported and analyzed in Microsoft Excel (Microsoft, Redmond Wash.) and Prism (GraphPad Software, La Jolla Calif.). Fluorescence values for blank reactions (limiting dNTP omitted) are subtracted to give normalized fluorescence units (NFU) to account for background fluorescence.
Test compounds were screened in a fluorescence-based assay. The assay employed a DNA polymerase-based approach utilizing an oligonucleotide template with 3 distinct regions: a 3′ primer binding region, a mid-template dUTP/thymidine triphosphate (TTP) detection region and a 5′ 6-[…] (FAM)-labeled probe binding region that incorporates a black hole quenching moiety. During the reaction, the probe and primer hybridize to the oligonucleotide template to form the template:primer:probe complex. When Taq polymerase binds to the primer in the TPP complex and dUTP is present, successful extension of the nascent strand occurs and the inherent 5′ to 3′ exonuclease activity of Taq polymerase cleaves and displaces the 6-FAM-labeled probe in a 5′ to 3′ direction, releasing the 6-FAM fluorophore from its proximity to the […]. This displacement effectively disrupts the Förster resonance energy transfer (FRET) and the resulting fluorescence detected upon excitation is directly proportional to the amount of the dUTP available in the assay for incorporation. […]

[4] = biological target: T1, recombinant human deoxyuridine nucleotidohydrolase (dUTPase); assay: as above; format: biochemical; conditions: 5 ng recombinant dUTPase, 50 pmols dUTP, 37° C. for 8 mins

## O=c1[nH]cc(F)c(=O)[nH]1 [Example 5-FU, 5-fluorouracil]
[1]
  growth inhibition: dose-dependent increases in growth inhibition

## O=c1[nH]c(=O)n([C@H]2C[C@H](O)[C@@H](CO)O2)cc1F [FUdR, fluorodeoxyuridine]
[2]
  colonies formed: dose-dependent decreases in colonies formed

## C[C@@H](NS(=O)(=O)CCCOCN1CCC(=O)NC1=O)c1cccc(OC2CCCC2)c1 [Example 93, (R)—N-(1-(3-(cyclopentyloxy)phenyl)ethyl)-3-((2,4-dioxotetrahydropyrimidin-1(2H)-yl)methoxy)propane-1-sulfonamide]
[3]
  % relative inhibition vs. positive control: 149%
[4]
  IC50: 500 nM
